Measurements reported in patent US11628198B2, “Methods for prevention and treatment of acute renal injury” (Cornell University, priority 2008, dated 2023).

How the values were obtained:
Format in all cases: in vivo, rat
[1] = system: ARI caused by ischemia-reperfusion (I/R); assay: I/R model: renal morphologic examination (H&E, PAS); details: 45 min ischemia and 24 h reperfusion
Method: (§1) Sprague Dawley rats (250˜300 g) were assigned to four groups: (1) sham surgery group without I/R; (2) I/R+saline vehicle treatment; (3) I/R+SS-20 treatment; (4) I/R+SS-31 treatment. Each experimental group consisted of 8 rats. SS-20 and SS-31 (3 mg/kg, dissolved in saline) were administered to rats 30 min before ischemia and immediately before onset of reperfusion. The control rats were given saline alone on the same schedule.
(§2) Rats were anesthetized with a mixture of ketamine (90 mg/kg, i.p.) and xylazine (4 mg/kg, i.p.). The left renal vascular pedicle was occluded temporarily using a micro-clamp for 30 or 45 min. At the end of the ischemic period, reperfusion was established by removing of the clamp. At that time, the contralateral right kidney was removed. After 24 h reperfusion, animals were sacrificed and blood samples were obtained by cardiac puncture. Renal function was determined by blood urea nitrogen (BUN) and serum creatinine (BioAssay Systems DIUR-500 and DICT-500).
Renal Morphologic Examination: Kidneys were fixed in 10% neutral-buffered formalin and embedded in paraffin wax. Three micron sections were stained with hematoxylin-eosin (H&E) and periodic acid-Schiff (PAS) and analyzed by light microscopy. Lesions were scored using the following criteria: [1] mitosis and necrosis of individual cells; [2] necrosis of all cells in adjacent proximal convoluted tubules with survival of surrounding tubules; [3] necrosis confined to the distal third of the proximal convoluted tubule with a band of necrosis extending across the inner cortex; and [4] necrosis affecting all three segments of the proximal convoluted tubule.

[2] = system: contrast induced nephropathy in diabetic animal model; assay: CIN in diabetic (HFD/STZ) rats with iohexol, Experiment 1
Method: Animal model: Impaired renal function caused by diabetes is one of the major predisposing factors for contrast induced nephropathy (McCullough, P et al., J. Am. College of Cardiology, 2008, 51, 1419-1428). In this experiment, a total of 57 SD rats were fed with high fat diet for 6 weeks, followed by the injection with low dose streptozotocin (30 mg/kg). After 9 more weeks, the blood glucose, scrum creatinine and Cystatin C was measured. Based on the following selection criteria: Scr>250 μM, Cystatin C>750 ng/ml and blood glucose>=[…], 20 rats were selected to proceed with the contrast induced nephropathy study.
The animals were divided into 2 groups. Group 1 rats were fed administered iohexol and SS-31; Group 2 rats were administered iohexol and a control vehicle. On day 1, serum samples were collected from the rats in each group and total protein in urine was measured using a Bradford assay. On days 2 and 3, 3 mg/kg SS-31 (Group 1) or a vehicle (Group 2) was administered s.c. 30 min prior to the dye injection (6 mL/kg i.v. tail vein). SS-31 (Group 1) or PBS (Group 2) administration was repeated at both 2 h and 24 h post-dye administration. Serum and urine samples were collected at days 4 and 5. The rats were euthaniszed on day 5 to harvest kidneys and vital organs. Samples were analyzed by students t-test and differences were considered significant at p<0.05.
Renal function: Renal function was assessed by determining serum and urinary creatinine using Jiancheng Cr kit (Nanjing, P.R.C) at baseline, 48 h and 72 h following dye administration. The creatinine clearance was calculated based on the Scr, Ucr and Urinary volume. Urinary protein concentration was determined by Bradford Protein Assay kit (Sigma, St. Louis, Mo.). The Cystatin C was measured Westang Rat Cystatin C kit (Shanghai, P.R.C.)

[3] = system: ARI caused by ischemia-reperfusion (I/R); assay: I/R model: TUNEL assay for apoptosis; details: 30 min ischemia and 24 h reperfusion; 3 mg/kg
Method: as §1, §2
TUNEL Assay for Apoptosis: Renal tissue sections were deparaffinized and rehydrated by xylenes, graded alcohol series and deionized H2O, and then incubated in 20 μg/ml proteinase K for 20 min at RT. In situ cell death detection POD kit (Roche, IN, USA) was used according to the manufacturer's instructions. […]

With D-Arg-2′6′Dmt-Lys-Phe-NH2 [SS-31] the histopathological score [1] was “significantly improved histopathological score”, the “tubular cell injury (H&E, PAS)” value [1] was “protected brush border and prevented necrosis in the proximal tubules” and the “Cystatin C” value ([2]; Baseline) was 708.6 ± 51.3 ng/mL. The GFR ([2]; Baseline) was 140.0 ± 11.1 μl/min/100 g, the Scr ([2]; Baseline) was 305.7 ± 15.1 µmol/L and the U protein ([2]; Baseline) was 4.83 ± 1.03 mg/4 h. For the same substance, the U vol ([2]; Baseline) was 15.4 ± 2.6 mL, the Ucr ([2]; Baseline) was 3187.0 ± 196.9 µmol/L and the “Cystatin C” value ([2]; T1 (48 h post dye)) was 1008.1 ± 46.4 ng/mL. The GFR ([2]; T1 (48 h post dye)) was 149.3 ± 15.6 μl/min/100 g, the Scr ([2]; T1 (48 h post dye)) was 285.4 ± 12.0 µmol/L and the U protein ([2]; T1 (48 h post dye)) was 4.71 ± 0.60 mg/4 h. The U vol ([2]; T1 (48 h post dye)) was 17.4 ± 1.6 mL, the Ucr ([2]; T1 (48 h post dye)) was 2816 ± 163.6 µmol/L and the “Cystatin C” value ([2]; T2 (72 h post dye)) was 1303.6 ± 147.1 ng/mL. The GFR ([2]; T2 (72 h post dye)) was 162.7 ± 18.7 μl/min/100 g, the Scr ([2]; T2 (72 h post dye)) was 295.7 ± 20.6 µmol/L and the U protein ([2]; T2 (72 h post dye)) was 3.59 ± 1.0 mg/4 h. For the same substance, the U vol ([2]; T2 (72 h post dye)) was 20.5 ± 2.3 mL, the Ucr ([2]; T2 (72 h post dye)) was 2675.4 ± 100.8 µmol/L and the “TUNEL-positive cells in the medulla (tubular cell apoptosis)” value [3] was “significantly prevented TUNEL-positive cells”.
